# Assay results published in US20240043427A1 (Gilead Sciences, Inc., priority 2020, published 2024).
# Biological target: CD73 (Homo sapiens (Human), UniProt P21589)
# Type: biochemical
# Settings: 1 mM NaH2PO4 in enzyme buffer, CD73 0.3 nM, AMP 15 uM
# CD73, sequence (P21589 27-574): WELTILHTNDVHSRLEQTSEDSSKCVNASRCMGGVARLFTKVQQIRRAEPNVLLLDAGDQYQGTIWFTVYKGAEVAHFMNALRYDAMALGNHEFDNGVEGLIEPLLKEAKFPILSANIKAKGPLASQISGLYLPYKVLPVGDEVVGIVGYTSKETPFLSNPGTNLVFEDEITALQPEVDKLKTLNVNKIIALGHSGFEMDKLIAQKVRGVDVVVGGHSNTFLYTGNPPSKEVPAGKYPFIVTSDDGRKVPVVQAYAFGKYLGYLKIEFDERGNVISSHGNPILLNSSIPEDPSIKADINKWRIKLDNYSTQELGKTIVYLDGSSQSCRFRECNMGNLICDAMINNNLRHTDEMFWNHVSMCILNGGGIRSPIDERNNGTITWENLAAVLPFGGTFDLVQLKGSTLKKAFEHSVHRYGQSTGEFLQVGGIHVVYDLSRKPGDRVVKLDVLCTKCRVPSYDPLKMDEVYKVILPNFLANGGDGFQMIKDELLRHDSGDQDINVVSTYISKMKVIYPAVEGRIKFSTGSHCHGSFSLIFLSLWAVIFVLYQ
row,SMILES,IC50
1,"O=c1[nH]cc(-c2cc([C@H]3C[C@@H]3c3cnn(C(F)(F)F)c3)c3nccn3n2)c(=O)[nH]1 (racemic) [Example 366, 5-(8-((1S,2S)-2-(1-(trifluoromethyl)-1H-pyrazol-4-yl)cyclopropyl)imidazo[1,2-b]pyridazin-6-yl)pyrimidine-2,4(1H,3H)-dione]",6.6 nM
2,"O=c1[nH]cc(-c2cc([C@H]3C[C@@H]3c3cnn(C(F)F)c3)c3nccn3n2)c(=O)[nH]1 (racemic) [Example 368, 5-(8-((1S,2S)-2-(1-(difluoromethyl)-1H-pyrazol-4-yl)cyclopropyl)imidazo[1,2-b]pyridazin-6-yl)pyrimidine-2,4(1H,3H)-dione]",3.73 nM
3,"O=c1[nH]cc(-c2cc([C@H]3C[C@@H]3c3cnn(C(F)F)c3)c3ncc(F)n3n2)c(=O)[nH]1 (racemic) [Example 370, 5-(8-((1S,2S)-2-(1-(difluoromethyl)-1H-pyrazol-4-yl)cyclopropyl)-3-fluoroimidazo[1,2-b]pyridazin-6-yl)pyrimidine-2,4(1H,3H)-dione]",4.02 nM
4,"O=c1[nH]cc(-c2cc([C@H]3C[C@@H]3c3ccc(OC(F)(F)F)cn3)c3nccn3n2)c(=O)[nH]1 (racemic) [Example 372, 5-(8-((1S,2S)-2-(5-(trifluoromethoxy)pyridin-2-yl)cyclopropyl)imidazo[1,2-b]pyridazin-6-yl)pyrimidine-2,4(1H,3H)-dione]",3.4 nM
5,"O=c1[nH]cc(-c2cc([C@H]3C[C@@H]3c3ccc(OC(F)(F)F)nc3)c3nccn3n2)c(=O)[nH]1 (racemic) [Example 376, 5-(8-((1S,2S)-2-(6-(trifluoromethoxy)pyridin-3-yl)cyclopropyl)imidazo[1,2-b]pyridazin-6-yl)pyrimidine-2,4(1H,3H)-dione]",8.07 nM
6,"O=c1[nH]cc(-c2cc([C@H]3C[C@@H]3c3ncc(C(F)(F)F)cn3)c3ncc(F)n3n2)c(=O)[nH]1 (racemic) [Example 378, 5-(3-fluoro-8-((1S,2S)-2-(5-(trifluoromethyl)pyrimidin-2-yl)cyclopropyl)imidazo[1,2-b]pyridazin-6-yl)pyrimidine-2,4(1H,3H)-dione]",6.45 nM
7,"N#Cc1cccc([C@H]2C[C@@H]2c2cc(-c3c[nH]c(=O)[nH]c3=O)nn3ccnc23)c1F (racemic) [Example 408, 3-((1S,2S)-2-(6-(2,4-dioxo-1,2,3,4-tetrahydropyrimidin-5-yl)imidazo[1,2-b]pyridazin-8-yl)cyclopropyl)-2-fluorobenzonitrile]",2.35 nM
8,"N#Cc1ccc([C@H]2C[C@@H]2c2cc(-c3c[nH]c(=O)[nH]c3=O)nn3ccnc23)cc1OC(F)(F)F (racemic) [Example 413, 4-((1S,2S)-2-(6-(2,4-dioxo-1,2,3,4-tetrahydropyrimidin-5-yl)imidazo[1,2-b]pyridazin-8-yl)cyclopropyl)-2-(trifluoromethoxy)benzonitrile]",3.01 nM
9,"N#Cc1cc([C@H]2C[C@@H]2c2cc(-c3c[nH]c(=O)[nH]c3=O)nn3ccnc23)ccc1OC(F)(F)F (racemic) [Example 414, 5-((1S,2S)-2-(6-(2,4-dioxo-1,2,3,4-tetrahydropyrimidin-5-yl)imidazo[1,2-b]pyridazin-8-yl)cyclopropyl)-2-(trifluoromethoxy)benzonitrile]",2.84 nM
10,"O=c1[nH]cc(-c2cc(N3CC(Oc4ccc(C(F)(F)F)cn4)C(F)(F)C3)c3ncnn3n2)c(=O)[nH]1 (racemic) [Example 432, 5-(8-(3,3-difluoro-4-((5-(trifluoromethyl)pyridin-2-yl)oxy)pyrrolidin-1-yl)-[1,2,4]triazolo[1,5-b]pyridazin-6-yl)pyrimidine-2,4(1H,3H)-dione]",0.15 nM
11,"O=C(Nc1ccccc1)[C@H]1C[C@@H]1c1cc(-c2c[nH]c(=O)[nH]c2=O)nn2ccnc12 (racemic) [Example 462, (1S,2S)-2-(6-(2,4-dioxo-1,2,3,4-tetrahydropyrimidin-5-yl)imidazo[1,2-b]pyridazin-8-yl)-N-phenylcyclopropane-1-carboxamide]",9.39 nM
12,"CC(C)(O)[C@H]1C[C@@H]1c1cc(-c2c[nH]c(=O)[nH]c2=O)nn2ccnc12 (racemic) [Example 463, 5-(8-((1S,2S)-2-(2-hydroxypropan-2-yl)cyclopropyl)imidazo[1,2-b]pyridazin-6-yl)pyrimidine-2,4(1H,3H)-dione]",61.9 nM
13,"O=c1[nH]cc(-c2cc([C@H]3C[C@@H]3c3c(F)ccc(F)c3F)c3nccn3n2)c(=O)[nH]1 (racemic) [Example 468, 5-(8-((1S,2S)-2-(2,3,6-trifluorophenyl)cyclopropyl)imidazo[1,2-b]pyridazin-6-yl)pyrimidine-2,4(1H,3H)-dione]",1.67 nM
14,"CC1(C)C(=O)N(CC(F)(F)F)c2cc([C@H]3C[C@@H]3c3cc(-c4c[nH]c(=O)[nH]c4=O)nn4ccnc34)ncc21 (racemic) [Example 718, 5-[8-[(1S,2S)-2-[3,3-dimethyl-2-oxo-1-(2,2,2-trifluoroethyl)pyrrolo[3,2-c]pyridin-6-yl]cyclopropyl]imidazo[1,2-b]pyridazin-6-yl]-1H-pyrimidine-2,4-dione]",3.07 nM

# More lines, in order of falling IC50, values ahead:
row,IC50,SMILES
1,95.3 nM,"O=c1[nH]cc(-c2cc(N3CCC(CC(F)(F)F)C3)c3nccn3n2)c(=O)[nH]1 (racemic) [Example 452, 5-(8-(3-(2,2,2-trifluoroethyl)pyrrolidin-1-yl)imidazo[1,2-b]pyridazin-6-yl)pyrimidine-2,4(1H,3H)-dione]"
2,76 nM,"O=c1[nH]cc(-c2cc(N3CCC(CC(F)F)C3)c3nccn3n2)c(=O)[nH]1 (racemic) [Example 453, 5-(8-(3-(2,2-difluoroethyl)pyrrolidin-1-yl)imidazo[1,2-b]pyridazin-6-yl)pyrimidine-2,4(1H,3H)-dione]"
3,21.5 nM,"O=c1[nH]cc(-c2cc([C@H]3C[C@@H]3c3ccn(C(F)F)n3)c3nccn3n2)c(=O)[nH]1 (racemic) [Example 369, 5-(8-((1S,2S)-2-(1-(difluoromethyl)-1H-pyrazol-3-yl)cyclopropyl)imidazo[1,2-b]pyridazin-6-yl)pyrimidine-2,4(1H,3H)-dione]"
4,7.66 nM,"O=c1[nH]cc(-c2cc([C@H]3C[C@@H]3c3ncc(C(F)(F)F)cn3)c3nccn3n2)c(=O)[nH]1 (racemic) [Example 377, 5-(8-((1S,2S)-2-(5-(trifluoromethyl)pyrimidin-2-yl)cyclopropyl)imidazo[1,2-b]pyridazin-6-yl)pyrimidine-2,4(1H,3H)-dione]"
5,7.17 nM,"O=c1[nH]cc(-c2cc([C@H]3C[C@@H]3c3ncc(C(F)(F)F)s3)c3nccn3n2)c(=O)[nH]1 (racemic) [Example 364, 5-(8-((1S,2S)-2-(5-(trifluoromethyl)thiazol-2-yl)cyclopropyl)imidazo[1,2-b]pyridazin-6-yl)pyrimidine-2,4(1H,3H)-dione]"
6,6.11 nM,"N#Cc1ccc([C@H]2C[C@@H]2c2cc(-c3c[nH]c(=O)[nH]c3=O)nn3ccnc23)cc1C(F)(F)F (racemic) [Example 411, 4-((1S,2S)-2-(6-(2,4-dioxo-1,2,3,4-tetrahydropyrimidin-5-yl)imidazo[1,2-b]pyridazin-8-yl)cyclopropyl)-2-(trifluoromethyl)benzonitrile]"
7,6 nM,"N#Cc1cc([C@H]2C[C@@H]2c2cc(-c3c[nH]c(=O)[nH]c3=O)nn3ccnc23)ccc1C(F)(F)F (racemic) [Example 412, 5-((1S,2S)-2-(6-(2,4-dioxo-1,2,3,4-tetrahydropyrimidin-5-yl)imidazo[1,2-b]pyridazin-8-yl)cyclopropyl)-2-(trifluoromethyl)benzonitrile]"
8,4.1 nM,"O=c1[nH]cc(-c2cc([C@H]3C[C@@H]3c3ccc(OC(F)(F)F)cn3)c3ncc(F)n3n2)c(=O)[nH]1 (racemic) [Example 374, 5-(3-fluoro-8-((1S,2S)-2-(5-(trifluoromethoxy)pyridin-2-yl)cyclopropyl)imidazo[1,2-b]pyridazin-6-yl)pyrimidine-2,4(1H,3H)-dione]"
9,3.47 nM,"N#Cc1ccc(F)c([C@H]2C[C@@H]2c2cc(-c3c[nH]c(=O)[nH]c3=O)nn3ccnc23)c1 (racemic) [Example 466, 3-((1S,2S)-2-(6-(2,4-dioxo-1,2,3,4-tetrahydropyrimidin-5-yl)imidazo[1,2-b]pyridazin-8-yl)cyclopropyl)-4-fluorobenzonitrile]"
10,2.66 nM,"O=c1[nH]cc(-c2cc([C@H]3C[C@@H]3c3cc(OCC(F)(F)F)c4ncccc4c3)c3nccn3n2)c(=O)[nH]1 (racemic) [Example 732, 5-(8-((1S,2S)-2-(8-(2,2,2-trifluoroethoxy)quinolin-6-yl)cyclopropyl)imidazo[1,2-b]pyridazin-6-yl)pyrimidine-2,4(1H,3H)-dione]"
11,2.56 nM,"O=c1[nH]cc(-c2cc([C@H]3C[C@@H]3c3nc4ccccc4[nH]3)c3nccn3n2)c(=O)[nH]1 (racemic) [Example 461, 5-(8-((1S,2S)-2-(1H-benzo[d]imidazol-2-yl)cyclopropyl)imidazo[1,2-b]pyridazin-6-yl)pyrimidine-2,4(1H,3H)-dione]"
12,1.9 nM,"N#Cc1ccc([C@H]2C[C@@H]2c2cc(-c3c[nH]c(=O)[nH]c3=O)nn3ccnc23)c(F)c1 (racemic) [Example 407, 4-((1S,2S)-2-(6-(2,4-dioxo-1,2,3,4-tetrahydropyrimidin-5-yl)imidazo[1,2-b]pyridazin-8-yl)cyclopropyl)-3-fluorobenzonitrile]"
13,1.47 nM,"O=c1[nH]cc(-c2cc([C@H]3C[C@@H]3c3ccc(F)c(F)c3F)c3nccn3n2)c(=O)[nH]1 (racemic) [Example 464, 5-(8-((1S,2S)-2-(2,3,4-trifluorophenyl)cyclopropyl)imidazo[1,2-b]pyridazin-6-yl)pyrimidine-2,4(1H,3H)-dione]"
14,0.7 nM,"O=c1[nH]cc(-c2cc([C@H]3C[C@@H]3c3cc4c(cn3)cnn4CC(F)(F)F)c3ncc(Cl)n3n2)c(=O)[nH]1 (racemic) [Example 471, 5-(3-chloro-8-((1S,2S)-2-(1-(2,2,2-trifluoroethyl)-1H-pyrazolo[4,3-c]pyridin-6-yl)cyclopropyl)imidazo[1,2-b]pyridazin-6-yl)pyrimidine-2,4(1H,3H)-dione]"
